One test relates to prostaglandin E2. Nature of the test: Prostaglandin E2 induced by homogenized cell lysate (EIA). To be noted: lysate homogenized in 10% aqueous trehalose vs saline; RAW264.7 cells, 8 hours; FIG. 7C. It counts as cell-based.
The test system of another test is TGF-β1. Nature of the test: TGF-β1 induced by homogenized cell lysate (ELISA). It counts as cell-based. As to conditions: lysate homogenized in 10% aqueous trehalose vs saline; RAW264.7 cells, 8 hours; acid-treated medium; FIG. 7D. How it is done:
Moreover, RAW264.7 cells cultured in a 225-cm^2 flask were homogenized in a physiological saline solution (saline) or a 10% aqueous solution of trehalose (trehalose) using a homogenizer, and cell lysate was thus prepared. The above-mentioned cell lysate was added to RAW264.7 cells that were being cultured in 6 wells, and the cells were cultured for another 8 hours. Then, the culture medium was collected. The culture medium was treated with acid, and then TGF-β1 in the culture medium was measured using ELISA (manufactured by R&D Systems).
In the above-mentioned tests, the cell lysate obtained through homogenization using a homogenizer was used as a model of cell disruption caused by damage (including a surgical operation).
(ELISA stands for enzyme-linked immunosorbent assay.)

Another test has as its system IL-1α. Nature of the test: IL-1α induced by homogenized cell lysate (ELISA). It counts as cell-based. As to conditions: lysate homogenized in 10% aqueous trehalose vs saline; RAW264.7 cells, 8 hours; FIG. 7B.
The subject of test [1] is alveolar epithelial cells. Nature of the test: Pulmonary tissue sections, H.E. and PAS staining, asthma model mice. It is filed as in vivo, BALB/c mice. As to conditions: primary inhalation of trehalose, FIGS. 3A, 3B. The protocol: (§1) Asthma model mice were produced using BALB/c mice (8 to 10 weeks old) and ovalbumin (OVA) serving as an antigen, and examinations were conducted by administering trehalose by inhalation. On the first day and the fourteenth day, a physiological saline solution or OVA was intraperitoneally administered. 20 micrograms of OVA was administered to one mouse using aluminum hydroxide as an adjuvant. From the twenty-seventh day to the thirty-first day, 10% trehalose or distilled water was administered by inhalation for 20 minutes every day. Moreover, from the twenty-eighth day to the thirtieth day, a physiological saline solution or 1% OVA was administered by inhalation for 20 minutes, 1 to 1.5 hours after the above-mentioned inhalation. On the thirty-second day, evaluation was conducted using an assay system for evaluating allergic airway inflammation and hyperresponsive airway. Pulmonary tissue pathological sections were produced from the model mice of Example 1, and the diseases state was observed through hematoxylin-eosin (H.E.) staining and periodic acid-Schiff (PAS) staining. FIGS. 3A and 3B show the results of H.E. staining and the results of PAS staining, respectively.

The subject of the next test is IL-13. Description: IL-13 level in bronchoalveolar lavage fluid (ELISA). It is filed as in vivo, BALB/c mice. As to conditions: OVA/OVA+Treh vs OVA/OVA, FIG. 5C. The protocol: as §1, with “Bronchoalveolar lavage was performed on” for “Pulmonary tissue pathological sections were produced from”, “numbers of various cells obtained through the bronchoalveolar lavage were compared and examined. […] The cytokine levels in the bronchoalveolar lavage fluids obtained in Example 4 were measured using an ELISA measurement kit. […] It should be noted that interferon (IFN-γ)” for “diseases state”, “not detected from any of” for “observed through hematoxylin-eosin (H.E.) staining and periodic acid-Schiff (PAS) staining. FIGS. 3A and 3B show”, “groups. […]” for “results of H.E. staining and the results of PAS staining, respectively.”

Another test relates to Asthma model mice. Description: Numbers of inflammation-inducing cells in bronchoalveolar lavage fluid. It is filed as in vivo, BALB/c mice. To be noted: inhalation; compared with OVA/OVA; FIG. 4. The protocol: as §1, with “Bronchoalveolar lavage was performed on” for “Pulmonary tissue pathological sections were produced from”, “numbers of various cells obtained through the bronchoalveolar lavage were compared and examined. It should be noted that, in this example, 0.5 mL of a physiological saline solution containing 50 μg of ovalbumin (OVA) and 1 mg of aluminum hydroxide gel serving as an adjuvant” for “diseases state”, “administered to OVA-administration mice (OVA/OVA) […]. […]” for “observed through hematoxylin-eosin (H.E.) staining and periodic acid-Schiff (PAS) staining. FIGS. 3A and 3B show the results of H.E. staining and the results of PAS staining, respectively.”

The test system of another test is TNF-α. Description: TNF-α induced by heat-shocked dead cell solution (ELISA). It counts as cell-based. To be noted: 10% aqueous trehalose vs saline added to cell solution (53° C. 10 minutes); RAW264.7 cells, 8 hours; FIG. 7E. The protocol:
Moreover, RAW264.7 cells cultured in a 225-cm^2 flask were collected, and heat shock was applied to the cells at 53° C. for 10 minutes. Then, the cells were left to stand at 37° C. for 5 hours to induce cell death, and the resulting solution was used as a cell solution. Thereafter, a physiological saline solution (saline) or a 10% aqueous solution of trehalose (trehalose) was added to the cell solution, and the resulting solution was treated on ice for 30 minutes. The above-mentioned cell solution was added to RAW264.7 cells that were being cultured in 6 wells, and the cells were cultured for another 8 hours. Then, TNF-α was measured using ELISA (manufactured by R&D Systems).
In this test, the cell solution including dead cells induced by heat shock was used as a model of cell disruption caused by a burn.

On to `OC[C@H]1O[C@H](O[C@H]2O[C@H](CO)[C@@H](O)[C@H](O)[C@H]2O)[C@H](O)[C@@H](O)[C@@H]1O` [trehalose], for which, in the test with prostaglandin E2, the “prostaglandin E2 level induced by cell lysate” value is “significantly reduced”. Besides, the “TGF-β1 level induced by cell lysate” value in the test on TGF-β1 was “significantly reduced”. The “IL-1α level induced by cell lysate” value in the test with IL-1α is “significantly reduced”. For the same compound, the “damage to alveolar epithelial cells (inflammatory cell infiltration, goblet cell hyperplasia)” value in test [1] is listed as “suppress damage to the alveolar epithelial cells”. Moreover, the “IL-13 level in bronchoalveolar lavage fluid” value in the test on IL-13 is “significantly suppress the expression of cytokines”. Also, the “numbers of inflammation-inducing cells in bronchoalveolar lavage fluid (Total, Mo, Ly, Eo, Nt)” value in the test on Asthma model mice is listed as “significantly reduced cell release”. For the same compound, the “TNF-α level induced by heat-shocked cell solution” value with TNF-α was “significantly reduced”.

Source of the values: patent publication US20230041980A1, “METHOD OF PROTECTING A RESPIRATORY TRACT OR A LUNG FROM DAMAGE, METHOD OF PROTECTING A LUNG FROM PRESSURE DAMAGE INDUCED BY A VENTILATOR, METHOD OF SUPPRESSING SPREAD OF INFECTION WITH VIRUSES OR BACTERIA THAT CAUSE PNEUMONIA IN PULMONARY BRONCHIAL EPITHELIAL CELLS OR ALVEOLAR EPITHELIAL CELLS, AND …” (NEXT21 KABUSHIKI KAISHA, priority 2020, published 2023).
